Experimental data taken from PubChem BioAssay AID2060907 (Molecular Pharmacology Branch, DTP, NCI, 2025).

Tested on: 388556-164-R-J1-PDC complex spheroid viability
Test: Anticancer human tumor 388556-164-R-J1-PDC patient-derived colon adenocarcinoma cell line growth inhibition [RAS]
Settings: for IC50: curve of first compound; for viability, T/C: stronger effect = lower value
Method in brief: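 Tumour cells grown as complex spheroids with HUVEC endothelial cells and mesenchymal stem cells, treated with RAS pathway inhibitor combinations. Each agent spans half-log steps from near clinical Cmax, or 10 microM where Cmax is unknown.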

[1] = second compound 0.00316 µM, first compound 0.0316 µM
[2] = second compound 0.00316 µM, first compound 0.1 µM
[3] = second compound 0.00316 µM, first compound 0.316 µM
[4] = second compound 0.00316 µM, first compound 1 µM
[5] = second compound 0.00316 µM, first compound 3.16 µM
[6] = second compound 0.00316 µM, first compound 10 µM
[7] = second compound 0.01 µM, first compound 0.0316 µM
[8] = second compound 0.01 µM, first compound 0.1 µM
[9] = second compound 0.01 µM, first compound 0.316 µM
[10] = second compound 0.01 µM, first compound 1 µM
[11] = second compound 0.01 µM, first compound 3.16 µM
[12] = second compound 0.01 µM, first compound 10 µM
[13] = second compound 0.0316 µM, first compound 0.0316 µM
[14] = second compound 0.0316 µM, first compound 0.1 µM
[15] = second compound 0.0316 µM, first compound 0.316 µM
[16] = second compound 0.0316 µM, first compound 1 µM
[17] = second compound 0.0316 µM, first compound 3.16 µM
[18] = second compound 0.0316 µM, first compound 10 µM
[19] = second compound 0.1 µM, first compound 0.0316 µM
[20] = second compound 0.1 µM, first compound 0.1 µM
[21] = second compound 0.1 µM, first compound 0.316 µM
[22] = second compound 0.1 µM, first compound 1 µM
[23] = second compound 0.1 µM, first compound 3.16 µM
[24] = second compound 0.1 µM, first compound 10 µM
[25] = second compound 0.316 µM, first compound 0.0316 µM
[26] = second compound 0.316 µM, first compound 0.1 µM
[27] = second compound 0.316 µM, first compound 0.316 µM
[28] = second compound 0.316 µM, first compound 1 µM
[29] = second compound 0.316 µM, first compound 3.16 µM
[30] = second compound 0.316 µM, first compound 10 µM
[31] = second compound 1 µM, first compound 0.0316 µM
[32] = second compound 1 µM, first compound 0.1 µM
[33] = second compound 1 µM, first compound 0.316 µM
[34] = second compound 1 µM, first compound 1 µM
[35] = second compound 1 µM, first compound 3.16 µM
[36] = second compound 1 µM, first compound 10 µM
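Also: spheroids exposed to compound for 7 days before readout.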
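For viability, T/C in this document: 100% = DMSO vehicle control luminescence.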

With `CC(Nc1ccc2c(c1)OCCn1cc(N3C(=O)OCC3C(F)F)nc1-2)C(N)=O` (stereo unspecified) + C=CC(=O)N1CCN(c2nc(OCC3CCCN3C)nc3c(F)c(-c4nc(N)cc(C)c4C(F)(F)F)c(Cl)cc23)C(C)C1 the IC50 (second compound 0.00316 µM) was > 10 µM, the IC50 (second compound 0.01 µM) was > 10 µM and the IC50 (second compound 0.0316 µM) was > 10 µM. For the same compound, the IC50 (second compound 0.1 µM) was > 10 µM, the IC50 (second compound 0.316 µM) was > 10 µM and the IC50 (second compound 1 µM) was > 10 µM. It also gave a viability, T/C [1] of 108%, a viability, T/C [2] of 96.9% and a viability, T/C [3] of 88.6%. It also gave a viability, T/C [4] of 84.2%, a viability, T/C [5] of 69.8% and a viability, T/C [6] of 71.7%. The viability, T/C [7] was 103%, the viability, T/C [8] was 94.4% and the viability, T/C [9] was 85%. For the same compound, the viability, T/C [10] was 77.1%, the viability, T/C [11] was 74% and the viability, T/C [12] was 63.3%. The viability, T/C [13] was 109%, the viability, T/C [14] was 98.9% and the viability, T/C [15] was 92.1%. The viability, T/C [16] was 76%, the viability, T/C [17] was 81.5% and the viability, T/C [18] was 65.5%. The viability, T/C [19] was 110%, the viability, T/C [20] was 88% and the viability, T/C [21] was 83%. For the same compound, the viability, T/C [22] was 77.2%, the viability, T/C [23] was 74.8% and the viability, T/C [24] was 68.1%. For the same compound, the viability, T/C [25] was 105%, the viability, T/C [26] was 114% and the viability, T/C [27] was 85.4%. It also gave a viability, T/C [28] of 77.8%, a viability, T/C [29] of 69.9% and a viability, T/C [30] of 64.4%. For the same compound, the viability, T/C [31] was 99.4%, the viability, T/C [32] was 88.7% and the viability, T/C [33] was 84.1%. It also gave a viability, T/C [34] of 84.1%, a viability, T/C [35] of 75.3% and a viability, T/C [36] of 65.7%.

For `C[C@@H](NC(=O)c1ncnc(N)c1Cl)c1ncc(C(=O)Nc2cc(C(F)(F)F)c(Cl)cn2)s1` + C=CC(=O)N1CCN(c2nc(OCC3CCCN3C)nc3c(F)c(-c4nc(N)cc(C)c4C(F)(F)F)c(Cl)cc23)C(C)C1, the IC50 (second compound 0.00316 µM) was > 10 µM, the IC50 (second compound 0.01 µM) was > 10 µM and the IC50 (second compound 0.0316 µM) was > 10 µM. For the same compound, the IC50 (second compound 0.1 µM) was > 10 µM, the IC50 (second compound 0.316 µM) was > 10 µM and the IC50 (second compound 1 µM) was > 10 µM. For the same compound, the viability, T/C [1] was 111%, the viability, T/C [2] was 114% and the viability, T/C [3] was 133%. For the same compound, the viability, T/C [4] was 111%, the viability, T/C [5] was 112% and the viability, T/C [6] was 104%. The viability, T/C [7] was 111%, the viability, T/C [8] was 115% and the viability, T/C [9] was 121%. It also gave a viability, T/C [10] of 114%, a viability, T/C [11] of 119% and a viability, T/C [12] of 98.4%. The viability, T/C [13] was 111%, the viability, T/C [14] was 118% and the viability, T/C [15] was 116%. It also gave a viability, T/C [16] of 117%, a viability, T/C [17] of 128% and a viability, T/C [18] of 101%. It also gave a viability, T/C [19] of 109%, a viability, T/C [20] of 109% and a viability, T/C [21] of 110%. The viability, T/C [22] was 117%, the viability, T/C [23] was 117% and the viability, T/C [24] was 91.8%. It also gave a viability, T/C [25] of 126%, a viability, T/C [26] of 122% and a viability, T/C [27] of 113%. It also gave a viability, T/C [28] of 125%, a viability, T/C [29] of 122% and a viability, T/C [30] of 97.1%. It also gave a viability, T/C [31] of 119%, a viability, T/C [32] of 116% and a viability, T/C [33] of 127%. It also gave a viability, T/C [34] of 133%, a viability, T/C [35] of 119% and a viability, T/C [36] of 97.7%.

`O=C(c1ccc(F)c(F)c1Nc1ccc(I)cc1F)N1CC(O)([C@@H]2CCCCN2)C1` + C=CC(=O)N1CCN(c2nc(OCC3CCCN3C)nc3c(F)c(-c4nc(N)cc(C)c4C(F)(F)F)c(Cl)cc23)C(C)C1 was tested, and the IC50 (second compound 0.00316 µM) was 0.129 µM, the IC50 (second compound 0.01 µM) was 0.158 µM and the IC50 (second compound 0.0316 µM) was 0.159 µM. For the same compound, the IC50 (second compound 0.1 µM) was 0.191 µM, the IC50 (second compound 0.316 µM) was 0.15 µM and the IC50 (second compound 1 µM) was 0.144 µM. The viability, T/C (second compound 0.00316 µM, first compound 0.00316 µM) was 97.8%, the viability, T/C (second compound 0.00316 µM, first compound 0.01 µM) was 90.8% and the viability, T/C [1] was 83.7%. For the same compound, the viability, T/C [2] was 53.5%, the viability, T/C [3] was 33.5% and the viability, T/C [4] was 22.8%. The viability, T/C (second compound 0.01 µM, first compound 0.00316 µM) was 106%, the viability, T/C (second compound 0.01 µM, first compound 0.01 µM) was 90.3% and the viability, T/C [7] was 78.2%. The viability, T/C [8] was 61.2%, the viability, T/C [9] was 34.5% and the viability, T/C [10] was 20.1%. For the same compound, the viability, T/C (second compound 0.0316 µM, first compound 0.00316 µM) was 92%, the viability, T/C (second compound 0.0316 µM, first compound 0.01 µM) was 94.4% and the viability, T/C [13] was 82.7%. It also gave a viability, T/C [14] of 59.8%, a viability, T/C [15] of 35% and a viability, T/C [16] of 18.9%. It also gave a viability, T/C (second compound 0.1 µM, first compound 0.00316 µM) of 91.6%, a viability, T/C (second compound 0.1 µM, first compound 0.01 µM) of 96% and a viability, T/C [19] of 86.5%. For the same compound, the viability, T/C [20] was 65.4%, the viability, T/C [21] was 38.1% and the viability, T/C [22] was 23.3%. For the same compound, the viability, T/C (second compound 0.316 µM, first compound 0.00316 µM) was 95.6%, the viability, T/C (second compound 0.316 µM, first compound 0.01 µM) was 97% and the viability, T/C [25] was 84.5%. It also gave a viability, T/C [26] of 58.6%, a viability, T/C [27] of 34% and a viability, T/C [28] of 21.6%. For the same compound, the viability, T/C (second compound 1 µM, first compound 0.00316 µM) was 97.3%, the viability, T/C (second compound 1 µM, first compound 0.01 µM) was 96.8% and the viability, T/C [31] was 86.1%. For the same compound, the viability, T/C [32] was 61.5%, the viability, T/C [33] was 26.7% and the viability, T/C [34] was 18.9%.
